Reference: US7923204B2, “Forward mutation assay based on 5-fluorouracil resistance” (priority 2003, dated 2011)
Counter-ions that a name gives are not always drawn. Like-named read-outs stand apart in the source and are kept apart here. Marks after values point to notes of the source that are not given here.

Key:
[1] = tested on: FU100; settings: for response in the 5-FU Assay (in words): text and figure legend (FIG. 6), with or without S9
Procedure: Briefly, in order to practice the disclosed mutation assay one-ml aliquots of exponentially growing bacteria are exposed to the test agent for two hours in the presence and absence of a metabolic activation system, such as a mammalian (i.e., rat, hamster or human) liver homogenate (S9-fraction or liver microsomal enzymes). The aliquots are then diluted, allowed to grow for 3 hours, and assessed for treatment-related toxicity/inhibition by optical density. The cultures are subsequently diluted a second time and grown overnight to permit full recovery from toxicity and to allow expression of the FU^R phenotype. Samples of the cultures are then plated in 384-well microtiter dishes in the presence of 2 μg/ml 5-FU and the pH-sensitive indicator bromcresol purple. Three days later positive wells containing FU^R colonies are detected by their yellow color and enumerated. Treated cultures are then compared to control plates to determine genotoxic activity.
For each mutation experiment, two frozen 1-ml aliquots of FU100 were quickly thawed in a 37° C. water bath, pelleted by centrifugation, washed to remove the DMSO, and suspended in 35 mL of MinE medium. The culture was shaken for approximately 1 hour at 37° C. until the optical density at 600 nm (OD600) reached the target density of 0.3. A 16-ml aliquot of culture was added to each of two 50-ml tubes containing 3.6 ml of a NADPH-generating system (5.6 mM glucose-6-phosphate, 4.5 mM NADP+, 5 mM sucrose, 110 mM Na2HPO4, 37 mM KCl, and 9 mM MgCl2) and either 0.4 ml rat liver S-9 or an equal volume of sodium phosphate buffer. Aliquots of these mixtures were distributed into three 12-well cluster dishes (one for exposure with S-9, one for exposure without S-9, one for controls with and without S-9), and exposed to test compounds as 1-ml aliquots for 2 hour as outlined in FIG. 1.
Following treatment, the 1-ml aliquots were transferred into 9 ml of warm MinE medium in a 50 ml tube and incubated at 37° C. on a rotary wheel for 3 hours. Next, 20 ml of medium was added to each culture tube and 0.25 ml aliquots were transferred to a 96-well plate for OD600 measurements to assess toxicity (OD Day 1). […] Bulk cultures were then incubated overnight in the dark at 30° C. to permit recovery from toxicity and to allow time for the test cells to express the FU^R phenotype.
The next day, OD600 was again assessed to adjust cell number plated on 5-FU plates (OD Day 2; 100 μl of the culture diluted with 150 μl MinE medium for OD600 measurements). For plating, a 35 μl aliquot of each culture was added to 31.4 mL of MinE medium with 2 μg/ml of 5-FU and 10 μg/ml of bromcresol purple. The mixture was then dispersed into a 384-well plate (75 μl/well) and placed at 37° C. for 3 days in a humidified incubator.
The data obtained for both survival (OD day 1), relative number of cells plated (OD day 2), and number of positive wells were imported into an Excel template.
Table 8 summarizes the criteria for positive result in 5-FU assay using the FU100 tester strain described and claimed herein. […] A positive compound was defined when two or more doses met the aforementioned criteria.

[2] = tested on: FU100
[3] = tested on: Salmonella; settings: cited from earlier work
[4] = tested on: sister chromatid exchange; settings: cited from earlier work
[5] = tested on: chromosome aberrations; settings: cited from earlier work
[6] = in the presence of S9 activation (+), FU100, 2 h exposure
[7] = without S9 activation (−), FU100, 2 h exposure
[8] = in the presence of S9 activation (+), approximate, first dose with greater than 50% survival by optical density on Day 1
[9] = without S9 activation (−), approximate, first dose with greater than 50% survival by optical density on Day 1
[10] = in the presence of S9 activation (+), lowest dose tested giving a positive response
[11] = without S9 activation (−), lowest dose tested giving a positive response
[12] = NTP Results Report 12 Aug. 2002 or cited reference (footnotes f, g, i, j)
[13] = NTP Results Report 12 Aug. 2002

| SMILES | Results (5-FU assay) [1, 6] | Results (5-FU assay) [1, 7] | LD50 [2, 8] [µg/mL] | LD50 [2, 9] [µg/mL] | Lowest Positive Dose [1, 10] [µg/mL] | Lowest Positive Dose [1, 11] [µg/mL] | NTP Results: SA = Salmonella [3, 12] | NTP Results: SC = sister chromatid exchange [4, 13] | also measured |
| --- | --- | --- | --- | --- | --- | --- | --- | --- | --- |
| O=Cc1ccccc1 [Benzaldehyde] | Neg | Neg | >150 | >150 |  |  |  |  |  |
| Nc1ccc2cc3ccccc3cc2c1 [2-Aminoanthracene] | Pos | Pos | >2 | >10 | 0.2 | 0.6 | + | + |  |
| CC/C(=C(\c1ccccc1)c1ccc(OCCN(C)C)cc1)c1ccccc1 [Tamoxifen] |  |  | >15 | >3 |  |  |  |  | Results (5-FU assay) [1]: Neg |
| C[S+](C)[O-] [Dimethyl Sulfoxide] | Neg | Neg | >5000 | >5000 |  |  | (SA−, CA−, SC−) | (SA−, CA−, SC−) | NTP Results: CA = chromosome aberrations [5, 13]: (SA−, CA−, SC−) |
| CC(C)(OOC(C)(C)c1ccccc1)c1ccccc1 [Dicumyl peroxide] | Neg | Neg | >5000 | >5000 |  |  | (SA−) |  |  |
| CN(C)[C@@H]1C(O)=C(C(N)=O)C(=O)[C@@]2(O)C(O)=C3C(=O)c4c(O)cccc4[C@@](C)(O)[C@H]3C[C@@H]12 [Tetracycline HCl] |  |  | >0.1 | >0.1 |  |  | − | − | Results (5-FU assay) [1]: Neg; NTP Results: CA = chromosome aberrations [5, 13]: − |
| COc1ccc2nc3cc(Cl)ccc3c(NCCCNCCCl)c2c1 [ICR-191] | Pos | Pos | >10 | >3 | 3.2 | 0.2 | (SA+) |  | response in the 5-FU Assay (in words) [1]: positive compounds in non-toxic concentrations |
| CCCCCCCCCCCCOS(=O)(=O)[O-].[Na+] [Sodium Dodecyl Sulfate] | Neg | Neg | >35 | >20 |  |  |  |  |  |
| COS(C)(=O)=O [Methyl Methanesulfonate] | Pos | Pos | >100 | >100 | 10 | 0.6 | (SA+) |  | plating efficiency of FU^R mutants in treated culture at the end of day 1 ([1]; before overnight grow back was introduced): significantly suppressed; response in the 5-FU Assay (in words) [1]: positive compounds in non-toxic concentrations |
| O=[N+]([O-])c1ccc2c(c1)Cc1ccccc1-2 [2-Nitrofluorene] | Pos | Pos | >2 | >1 | 0.6 | 0.02 |  |  |  |
| Cc1ccc2cc3c(ccc4ccccc43)c3c2c1CC3 [20-Methylcholanthrene] | Pos | Pos | >50 | >50 | 0.2 | 5 | + | + | NTP Results: CA = chromosome aberrations [5, 13]: − |
| Nc1ccc2cc3ccc(N)cc3nc2c1 [Proflavine HCl] | Pos | Pos^w | >10 | >10 | 0.1 | 16 | (SA+) |  |  |
| C[C@H](CCC(=O)O)[C@H]1CC[C@H]2[C@@H]3CC[C@@H]4C[C@H](O)CC[C@]4(C)[C@H]3CC[C@]12C [Lithocholic Acid] | Neg | Neg | >2000 | >2000 |  |  |  |  |  |
| CC(O)CCl (stereo not shown) [1-Chloro-2-propanol] |  |  |  |  |  |  |  |  | Lowest Positive Dose [1]: 2800 µg/mL; Results (5-FU assay) [1]: Pos^w; Results (5-FU assay) ([1]; s9): Neg; NTP Results: SA = Salmonella [3]: (SA+, CA+, SC+); NTP Results: CA = chromosome aberrations [5]: (SA+, CA+, SC+); NTP Results: SC = sister chromatid exchange [4]: (SA+, CA+, SC+) |
| O=[N+]([O-])c1ccc(O)cc1 [p-Nitrophenol] | Neg | Neg | >50 | >50 |  |  | − | − | NTP Results: CA = chromosome aberrations [5, 13]: + |
| CCC1(c2ccccc2)C(=O)NC(=O)NC1=O [Phenobarbital] | Pos^w | Pos^w | >500 | >500 | 1500 | 2800 |  |  |  |
| CN(N=O)C(N)=O [N-Nitroso-N-methylurea] | Pos | Pos | >90 | >90 | 5.0 | 5.0 | (SA+) |  |  |
| Cc1cccc(Nc2cc(Cl)nc(SCC(=O)O)n2)c1C [Wyeth 14,643] | Neg | Neg | >900 | >900 |  |  | (SA−) |  |  |
| CN(C)N=O [N-Nitrosodimethylamine] | Pos | Neg | >2000 | >2000 | 360 |  | (SA+, CA+, SC+) | (SA+, CA+, SC+) | NTP Results: CA = chromosome aberrations [5, 13]: (SA+, CA+, SC+) |
| O=C1NS(=O)(=O)c2ccccc21 [Saccharin] |  |  |  |  |  |  |  |  | Results (5-FU assay) [1]: Neg; LD50 ([2]; Salmonella typhimurium): >5000 µg/mL; NTP Results: SA = Salmonella [3]: (SA−) |
| OCc1ccccc1 [Benzyl Alcohol] | Neg | Neg | >500 | >900 |  |  | − | +^w | NTP Results: CA = chromosome aberrations [5, 13]: + |
| O=[N+]([O-])c1cc[n+]([O-])c2ccccc12 [4-Nitroquinoline N-oxide] |  |  | >0.5 | >0.5 |  |  |  |  |  |
| O=c1ccc2ccccc2o1 [Coumarin] | Pos | Neg | >150 | >900 | 50 |  |  |  |  |
| c1ccc2c(c1)cc1ccc3cccc4ccc2c1c34 [Benzo[a]pyrene] |  |  | >20 | >20 |  |  |  |  |  |
| Cl.Nc1c2ccccc2nc2ccccc12.O [9-Aminoacridine•HCl•H2O] | Pos | Pos | >9 | >9 | 16 | 16 | (SA+, CA+, SC+) | (SA+, CA+, SC+) | response in the 5-FU Assay (in words) [1]: positive compounds in toxic concentrations; NTP Results: CA = chromosome aberrations [5, 13]: (SA+, CA+, SC+) |
